Data as given in patent US20060063759A1, “Tricyclic steroid hormone nuclear receptor modulators” (priority 2002, published 2006).

Biological target: T1, human MR (Homo sapiens, UniProt P08235)
T1 construct: The full length human MR gene is cloned from a human kidney or human brain cDNA library; His tag from the pAcHLT vector (own knowledge); made in house; host or cells: Sf9 insect cells (baculovirus, pAcHLT transfer vector)
T1 sequence (P08235 1-984): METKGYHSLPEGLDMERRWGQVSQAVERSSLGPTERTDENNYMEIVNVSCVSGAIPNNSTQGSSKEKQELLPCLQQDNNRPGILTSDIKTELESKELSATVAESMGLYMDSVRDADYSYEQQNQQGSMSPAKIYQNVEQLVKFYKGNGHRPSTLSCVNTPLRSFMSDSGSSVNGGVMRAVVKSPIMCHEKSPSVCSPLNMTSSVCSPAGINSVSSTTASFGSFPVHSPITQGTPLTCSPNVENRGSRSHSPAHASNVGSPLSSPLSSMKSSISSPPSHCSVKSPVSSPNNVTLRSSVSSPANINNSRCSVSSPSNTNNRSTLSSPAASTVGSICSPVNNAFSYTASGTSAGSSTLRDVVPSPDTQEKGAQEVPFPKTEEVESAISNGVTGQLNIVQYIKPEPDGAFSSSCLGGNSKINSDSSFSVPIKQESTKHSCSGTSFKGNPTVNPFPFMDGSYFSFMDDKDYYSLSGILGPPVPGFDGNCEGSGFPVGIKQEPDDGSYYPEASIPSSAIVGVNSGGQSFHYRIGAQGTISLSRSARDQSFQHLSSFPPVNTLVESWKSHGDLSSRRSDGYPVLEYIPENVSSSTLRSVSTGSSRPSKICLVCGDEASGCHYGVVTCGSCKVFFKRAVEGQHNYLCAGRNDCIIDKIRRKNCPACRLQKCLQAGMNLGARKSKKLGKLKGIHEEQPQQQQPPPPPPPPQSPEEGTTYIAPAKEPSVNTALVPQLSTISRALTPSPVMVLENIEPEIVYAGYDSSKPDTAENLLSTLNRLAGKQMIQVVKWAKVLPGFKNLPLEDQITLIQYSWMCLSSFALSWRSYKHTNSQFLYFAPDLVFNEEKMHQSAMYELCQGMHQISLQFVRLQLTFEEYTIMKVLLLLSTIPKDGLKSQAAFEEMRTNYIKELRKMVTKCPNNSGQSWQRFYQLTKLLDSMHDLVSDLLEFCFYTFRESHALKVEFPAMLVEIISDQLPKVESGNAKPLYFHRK
Assay: Mineralocorticoid Receptor Binding Assay ([3H]-aldosterone)
Settings: [3H]-aldosterone binding, human MR expressed in Sf9 cells; read-out: MR Ki
Procedure: All ligands, radioligands, solvents, and reagents employed in the binding assays are readily available from commercial sources, or can be readily synthesized by the ordinarily skilled artisan.
The full length human MR gene is cloned from a human kidney or human brain cDNA library. […] The PCR reaction is performed in a final volume of 50 μl containing about 1 μl of a 50× stock solution of polymerase; about 1 μl of a 50× stock solution of dNTP; about 5 μl of an appropriate PCR buffer; about 1 μl of each primer; about […] of a H. kidney or H. brain cDNA library; and about 36 μl of water. The reaction is allowed to denature for about 30 seconds at 95 degrees Celsius, anneal for about 30 seconds at 55 degrees Celsius, and extend for about 5 minutes at 72 degrees Celsius, the sequence being repeated for a total of about 35 cycles. […] To extract the cDNA product from the agarose gel, the QIAEX II Gel Extraction protocol (QIAGEN, Inc.) is employed according to the manufacturer's instructions. Following extraction, the MR cDNA is cloned into an appropriate cloning vector (Zero Blunt TOPO PCR Cloning Kit Invitrogen, Inc.) and a pAcHLT-baculovinis transfer vector (B.D./Pharminogen), then expressed in SF9 insect cells, essentially according to manufacturer's instructions. Sf9 cells are grown at a scale where gram quantity cell pellets are obtained for subsequent use in the MR binding assay. Harvested cell pellets are lysed by repeated freeze-thaw cycles (about 4) in a suitable lysis buffer then centrifuged at about 1×10^3 G (with the supernatant being saved for future assays).
MR binding assays are performed in a final total volume of about 250 μl containing about 20-25 μg of protein and 0.5 nM of [^3H]-aldosterone plus varying concentrations of test compound or vehicle. The assay binding buffer consists of 30 mM sodium molybdate, 30 mM of TRIS-HCl, 5 mM sodium phosphate, 5 mM sodium pyrophosphate, and about 10% glycerol, pH=7.5.
Incubations are carried out at 4 degrees Celsius with shaking for about 16 hours. 200 μl aliquots of each incubation are filtered onto Millipore HA 0.45 micron 96-well filter plates, pre-moistened with cold 30 mM TRIS-HCl. The filter plates are suctioned dry with vacuum and immediately washed 3× with cold 30 mM TRIS-HCl. The plates are then punched out and the amount of receptor-ligand complex is determined by liquid scintillation counting using 4 ml of Ready Protein Plus™ liquid scintillation cocktail.
IC50 values (defined as the concentration of test compound required to decrease [^3H]-aldosterone binding by 50%/o) are then determined.

SMILES | Ki [nM]
CS(=O)(=O)Nc1ccc2c(c1)CCc1ccccc1/C2=C/c1cccc(O)c1 [Example 337] | < 1000
CS(=O)(=O)Nc1cccc(/C=C2/c3ccccc3CCc3ccncc32)c1 [Example 513] | < 1000
O=c1[nH]c2cc(/C=C3/c4ccc(F)cc4OCc4ncccc43)ccc2n1CCN1CCOCC1 [Example 618, (E)-5-(8-Fluoro-11H-10-oxa-1-aza-dibenzo[a,d]cyclohepten-5-ylidenemethyl)-1-(2-morpholin-4-yl-ethyl)-1,3-dihydro-benzoimidazol-2-one] | < 500
O=[N+]([O-])c1cccc(/C=C2/c3ccccc3OCc3c(Cl)cccc32)c1 [Example 621] | < 500
O=c1[nH]c2ccc(/C=C3/c4ccc(F)cc4OCc4ncccc43)cc2[nH]1 [Example 625] | < 500
O=c1[nH]c2ccc(CC3c4ccccc4COc4cc(F)ccc43)cc2[nH]1 (stereo not drawn) [Example 645] | < 500
Cc1ccc2c(c1)/C(=C/c1cccc(NS(C)(=O)=O)c1)c1ccccc1CO2 [Example 678] | < 500
CS(=O)(=O)Nc1cccc(C=C2c3ccccc3CSc3c(Cl)cc(Cl)cc32)c1 [Example 697] | < 500
Cn1c(=O)n(C)c2cc(/C=C3\c4ccccc4COc4cc(F)ccc43)ccc21 [Example 717] | < 500
O=c1[nH]c2cc(/C=C3\c4ccc(F)cc4OCc4ncsc43)ccc2n1CCN1CCOCC1 [Example 719] | < 500
CS(=O)(=O)Nc1cccc(C=C2c3ccccc3CSc3c(Cl)cccc32)c1 [Example 720] | < 500
COCC(=C1c2ccccc2CCc2cc(Cl)ccc21)c1cccc(NS(C)(=O)=O)c1 [Example 756, N-{3-[1-(2-Chloro-10,11-dihydro-dibenzo[a,d]cyclohepten-5-ylidene)-2-methoxy-ethyl]-phenyl}-methanesulfonamide] | < 500
C/C(=C1\c2ccccc2CCc2cc(C)ccc21)c1cccc(NS(C)(=O)=O)c1 [Example 781] | < 500
C/C(=C1/c2ccccc2CCc2cc(C)ccc21)c1cccc(NS(C)(=O)=O)c1 [Example 782] | < 500
C/C(=C1\c2ccccc2COc2cc(Cl)ccc21)c1cccc(NS(C)(=O)=O)c1 [Example 791] | < 500
C/C(=C1/c2ccccc2COc2cc(Cl)ccc21)c1cccc(NS(C)(=O)=O)c1 [Example 792] | < 500
CCOc1ccc2c(c1)OCc1ccccc1/C2=C(\C)c1cccc(NS(C)(=O)=O)c1 [Example 815] | < 500
CCCCOc1ccc2c(c1)OCc1ccccc1/C2=C(/C)c1cccc(NS(C)(=O)=O)c1 [Example 816] | < 500

The remaining lines, values ahead:

Ki [nM] | SMILES
< 500 | CC(C)S(=O)(=O)Nc1ccc(C=C2c3ccccc3CCc3ccccc32)cc1 [Example 107, Propane-2-sulfonic acid [4-(10,11-dihydro-dibenzo[a,d]cyclohepten-5-ylidenemethyl)-phenyl]-amide]
< 500 | CSc1cccc(C=C2c3ccccc3CCc3ccccc32)c1 [Example 278, 5-(3-Methylsulfanyl-benzylidene)-10,11-dihydro-5H-dibenzo[a,d]cycloheptene]
< 500 | Cc1cccc2c1/C(=C/c1cccc(NS(C)(=O)=O)c1)c1ccccc1CC2 [Example 313]
< 500 | CS(=O)(=O)Nc1cccc(/C=C2/c3ccccc3CCc3cc(F)ccc32)c1 [Example 354]
< 500 | COc1ccc2c(c1)CCc1cc(Cl)ccc1/C2=C\c1cccc(NS(C)(=O)=O)c1 [Example 425]
< 500 | COc1ccc2c(c1)CCc1cc(Cl)ccc1/C2=C/c1cccc(NS(C)(=O)=O)c1 [Example 426]
< 500 | CS(=O)(=O)Nc1cccc(/C=C2\c3ccc(F)cc3CCc3ncccc32)c1 [Example 486, (E)-N-[3-(8-fluoro-10,11-dihydro-benzo[4,5]cyclohepta[1,2-b]pyridin-5-ylidenemethyl)-phenyl]-methanesulfonamide]
< 500 | CS(=O)(=O)Nc1cccc(C=C2c3ccccc3CCc3ccsc32)c1 [Example 493]
< 500 | CC(=O)Nc1nc2c(s1)/C(=C\c1cccc(NS(C)(=O)=O)c1)c1ccccc1CC2 [Example 558]
